Read-outs that look alike come from different tables or passages of the source.
Experiments:
[1] = Biodistribution of i.v. administered radioiodinated compounds in balb/c mice; conditions: for Bone-seeking properties: mouse, in vivo; for Discomfort or toxicity after administration of samples: single bolus tail vein injection, 100 μl;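 for all read-outs here: healthy mice given radioiodinated bisphosphonic acids, with randomly chosen groups of three animals per time point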
Protocol: Mice. Samples of 100 μl containing 50,100, 400, 140 or 45 KBq of 31a, 34a, 46a, 67a or 72a, respectively, were injected into the tail veins as single bolus injections. […] At 0.5 h, 2 h, 5 h and 24 h postinjection times the animals were sacrificed; except in the case of the phosphate phosphonate derivative 31 were the animals were sacrificed 0.25 h, 2 h, 5 h and 24 h postinjection. Randomly selected groups of three animals were used at each time point. The whole animals were weighed and dissected. The excised organs, i.e. femur, skull, blood, heart, lung, liver, kidney, spleen, stomach, large intestine and small intestine, were weighed separately prior to counting.
Radioactivity measurements of the labelled compounds were carried out with a liquid scintillation counter (Beckman LS 6500, Beckman Instruments, USA) or with a Capintec CRC-7R radioisotope calibrator (Capintec, USA). The radioactivity level of the excised organs was measured with an automated gamma counter (LKB Wallac 1282, Turku, Finland).

[2] = Swiss Webster mice, 20-25 g, 47 h; cited from earlier work
[3] = system: MT-1 cells; conditions: repeated treatments (days 7 and 14); cited from earlier work
[4] = system: OHS cells; conditions: 60 days; ^153Sm-EDTMP 800 MBq/kg, ^89Sr 20 MBq/kg, ifosfamide 150 mg/kg; cited from earlier work
[5] = balb/c mice, 19-22 g, cited from earlier work
[6] = Sprague-Dawley rats, 220 g, 24 h; cited from earlier work

Q: Which results are given for `O=P(O)(O)C(CCc1cccc([131I])c1)P(=O)(O)O` [72a, 3-(m-iodo-[^131I and ^125I]-phenyl)propylidene-1,1-bisphosphonic acid]?
A: Uptake in femur ([1]; 24 h postinjection, i.v.): 8.84±0.97 % ID/g; Uptake in kidneys ([1]; 24 h postinjection, i.v.): 0.85±0.08 % ID/g; Uptake in liver ([1]; 24 h postinjection, i.v.): 0.35±0.06 % ID/g; Uptake in skull ([1]; 24 h postinjection, i.v.): 10.36±4.26 % ID/g; Bone-seeking properties [1]: potent bone-seekers; Discomfort or toxicity after administration of samples [1]: No sign of discomfort or toxicity was observed

Q: Which results are given for `O=P(O)(O)C(Cc1ccccc1)P(=O)(O)O` [2h, phenylethylidenebisphosphonic acid]?
A: Uptake in femur ([1]; 2 h postinjection (peak), i.v.): 21±4 % ID/g; Uptake in femur ([1]; 24 h postinjection, i.v.): 15±5 % ID/g

Q: With `O=P(O)(O)C(NCCc1cccc([131I])c1)P(=O)(O)O` [67a, N-(m-[^131I]-iodophenylethyl)aminomethylene-bisphosphonic acid] as the compound, how does the Uptake in femur ([1]; 24 h postinjection, i.v.) read?
A: 1.39±0.43 % ID/g

Q: And the Uptake in liver ([1]; 24 h postinjection, i.v.)?
A: 5.57±0.79 % ID/g

Q: What about the Uptake in skull ([1]; 24 h postinjection, i.v.) of the same compound?
A: 0.91±0.08 % ID/g

Q: And the Uptake in spleen ([1]; 24 h postinjection, i.v.)?
A: 2.49±0.37 % ID/g

Q: What about the Bone-seeking properties [1] of the same compound?
A: lack bone seeking properties

Q: And the “Discomfort or toxicity after administration of samples” value [1]?
A: No sign of discomfort or toxicity was observed

Q: What does the source list for `O=P(O)(O)C(O)(c1cccc(I)c1)P(=O)(O)O` [compound 2]?
A: Ratio between uptake in femur and stomach [2]: 1.7 (femur/stomach, Swiss Webster; Uptake in femur expressed as % gram dose per gram tissue [2]: 299 (Swiss Webster mice, 20-25 g, 47 h) % gram dose per gram tissue; Uptake in stomach [2]: 7.65 ± 0.02 % ID/g; Uptake in the thyroid [2]: 0.414 ± 0.147 % injected dose/organ

Q: What does the source list for `N.N.[Cl][Pt][Cl]` [cisplatin]?
A: Effect on the metastatic growth [3]: nor did they have any significant effect on the metastatic growth; Survival after repeated treatments [3]: have not improved survival

Q: For `[89Sr]` [^89Sr], which “Survival rate / disease-free rats” value [4] is on record?
A: 20%

Q: What about the “Surviving / disease-free rats of rats treated” value [4] of the same compound?
A: 2 of 10

Q: With `O=P(O)(O)C(Cc1cccc([125I])c1)P(=O)(O)O` [34a, m-[^125I and ^131I]-iodophenylethylidene-1,1-bisphosphonic Acid] as the compound, how does the Uptake in femur ([1]; 0.5 h (30 min) postinjection, i.v.) read?
A: 18.8±0.51 % ID/g

Q: And the Activity in blood ([1]; 0.5 h postinjection, i.v.)?
A: 2.22±0.31 % ID/g

Q: What about the Uptake in kidneys ([1]; 0.5 h postinjection, i.v.) of the same compound?
A: 8.23±6.39 % ID/g

Q: What about the Uptake in skull ([1]; 0.5 h postinjection, i.v.) of the same compound?
A: 10.28±2.58 % ID/g

Q: What about the “Femur to soft tissue ratio” value ([1]; 24 h, soft tissue with highest uptake) of the same compound?
A: > 14

Q: And the Uptake in femur ([1]; 24 h postinjection, i.v.)?
A: 15.25±4.89 % ID/g

Q: And the Uptake in kidneys ([1]; 24 h postinjection, i.v.)?
A: 1.06±0.10 % ID/g

Q: What about the Uptake in skull ([1]; 24 h postinjection, i.v.) of the same compound?
A: 7.13±2.73 % ID/g

Q: And the Bone-seeking properties [1]?
A: potent bone-seekers

Q: What about the “Discomfort or toxicity after administration of samples” value [1] of the same compound?
A: No sign of discomfort or toxicity was observed

Q: What does the source list for `O=C(NCCC(O)(P(=O)(O)O)P(=O)(O)O)c1cccc(I)c1` [compound 4]?
A: Uptake in femur expressed as % gram dose per gram tissue ([5]; 2 h): 702 (balb/c mice, 19-22 g, 2 h) % gram dose per gram tissue; Ratio between uptake in femur and spleen ([5]; 24 h): 3.2 (femur/spleen, balb/c mice,; Uptake in stomach ([5]; 24 h): 0.93 ± 0.95 % ID/g; Uptake in the thyroid ([5]; 24 h): 0.45 ± 0.36 % injected dose/organ

Q: Which results are given for `O=P1(NCCCl)OCCCN1CCCl` (stereo not drawn) [ifosfamide]?
A: Survival rate / disease-free rats [4]: 20%; Surviving / disease-free rats of rats treated [4]: 3 of 15

Q: Which “Effect on the metastatic growth” value [3] does the source give for `COc1cccc2c1C(=O)c1c(O)c3c(c(O)c1C2=O)C[C@@](O)(C(=O)CO)C[C@@H]3O[C@H]1C[C@H](N)[C@H](O)[C@H](C)O1` [doxorubicin] here?
A: nor did they have any significant effect on the metastatic growth

Q: What about the “Survival after repeated treatments” value [3] of the same compound?
A: have not improved survival

Q: Which “Ratio between uptake in femur and kidney” value [6] does the source give for `O=P(O)(O)C(c1ccc(O)c(I)c1)P(=O)(O)O` [compound 3] here?
A: 1.5 (femur/kidney, Sprague-Dawley

Q: And the “Uptake in femur expressed as % gram dose per gram tissue” value [6]?
A: 438 (Sprague-Dawley rats, 220 g, 24 h) % gram dose per gram tissue

Q: What about the “Uptake in the thyroid” value [6] of the same compound?
A: 3829 (% ID/g,

Q: Which “Survival rate / disease-free rats” value [4] does the source give for ^153Sm-EDTMP here?
A: 62%

Q: And the “Surviving / disease-free rats of rats treated” value [4]?
A: 8/13
